According to patent EP0686628A2, “Prostaglandin F esters” (ONO PHARMACEUTICAL CO., LTD., priority 1994, dated 1995):

Columns and labels:
intraocular pressure [1] = assay: Experiment 1: ocular hypotensive effect (Δ IOP) after instillation of a 0.1% solution into the rabbit eye; format: in vivo, Male Japanese White rabbits; conditions: 0.1% solution instilled into left eye, vehicle-corrected, mean of three or four samples
Method: (§1) Male Japanese White rabbits weighing about 3.0 kg were lightly held and the intraocular pressure was measured by Applanation Pneumatonograph after corneal anesthesia with instillation of 0.4% oxybuprocaine hydrochloride solution.
(§2) A test compound was dissolved at 0.1% in vehicle which contains 2.5% glycerol and 2.0% polysorbate 80 in sterile purified water. The test solution at volume of […] was instilled into the left eye of each rabbit and the right eye remained untreated. As a control, the vehicle was instilled into the left eye in a control group. Δ IOP (mmHg), which is an index of ocular hypotensive effect, were calculated using below formula. Δ IOP = (IOPt - IOP0) - (IOPvt - IOPv0) [formula] IOPt : IOP at t hr. after instillation of a test solution IOPvt : IOP at t hr. after instillation of vehicle IOP0 : IOP just before instillation of a test solution IOPv0 : IOP just before instillation of vehicle
For example, the maximum reduction of IOP after instillation of the compounds shown as examples 1, 1(a), 1(b), 2, 3, 4 and 5 hereinafter were 6.0, 5.7, 5.4, 4.0, 4.7, 6.7 and 9.8 mmHg, respectively. And when the compound of the present invention was instilled, bulbar and palpebral conjunctival hyperemia could hardly be observed.

intraocular pressure [2] = assay: Experiment 2: ocular hypotensive effect (Δ IOP) after instillation of a 0.02% solution, comparison with compared compounds; format: in vivo, Male Japanese White rabbits; conditions: rabbit; for Ocular Hypotensive Effects on Intraocular Pressure (Δ IOP), Time after Administration 0 hr.: 0 hr. after administration (baseline); for Ocular Hypotensive Effects on Intraocular Pressure (Δ IOP), Time after Administration 1 hr.: 1 hr. after administration; for Ocular Hypotensive Effects on Intraocular Pressure (Δ IOP), Time after Administration 2 hr.: 2 hr. after administration; for Ocular Hypotensive Effects on Intraocular Pressure (Δ IOP), Time after Administration 4 hr.: 4 hr. after administration; for Ocular Hypotensive Effects on Intraocular Pressure (Δ IOP), Time after Administration 6 hr.: 6 hr. after administration; for initial elevation of the intraocular pressure: side effect
Method: as §1, §2
Further, the compounds of the present invention were compared with the compounds shown concretely in related arts hereinbefore described. The compounds have chemical structures quite similar to the compounds of the present invention were selected as compared compounds. 0.02% solutions of the compounds of the present invention were compared with the compared compounds, because the 0.02% solution is close to concentration used actually.
The compounds of the present invention and compared compounds were dissolved in vehicle at 0.02%, and Δ IOPs (mmHg) after instillation of these solution, which are the index of ocular hypotensive effects, were calculated in the same way as the experiment 1.
The graphs of the results shown in the Table 1 and Table 2 were Figure 1 and Figure 2.

| SMILES | maximum reduction of IOP after instillation (intraocular pressure [1]) [mmHg] | duration of the initial elevation of intraocular pressure (intraocular pressure [2]) [h] | time after administration at which the ocular hypotensive effect appeared (intraocular pressure [2]) [h] | Ocular Hypotensive Effects on Intraocular Pressure (Δ IOP), Time after Administration 0 hr. (intraocular pressure [2]) [mmHg] | Ocular Hypotensive Effects on Intraocular Pressure (Δ IOP), Time after Administration 1 hr. (intraocular pressure [2]) [mmHg] | Ocular Hypotensive Effects on Intraocular Pressure (Δ IOP), Time after Administration 2 hr. (intraocular pressure [2]) [mmHg] | Ocular Hypotensive Effects on Intraocular Pressure (Δ IOP), Time after Administration 4 hr. (intraocular pressure [2]) [mmHg] | Ocular Hypotensive Effects on Intraocular Pressure (Δ IOP), Time after Administration 6 hr. (intraocular pressure [2]) [mmHg] | initial elevation of the intraocular pressure (intraocular pressure [2]) | time after administration for which the activity was maintained (intraocular pressure [2]) [h] | activity (reduction of intraocular pressure) reached at 4 hrs. after administration (intraocular pressure [2]; 4 hrs. after administration, printed as magnitude) [mmHg] |
| --- | --- | --- | --- | --- | --- | --- | --- | --- | --- | --- | --- |
| CCCCC[C@H](O)CC[C@@H]1[C@@H](C/C=C\CCCC(=O)OCc2ccccc2)[C@H](O)C[C@H]1O [Example 1(b), 13,14-dihydro-PGF2β benzyl ester] | 5.4 | – | – | – | – | – | – | – | – | – | – |
| CCCCC(C)(C)[C@H](O)/C=C/[C@@H]1[C@@H](C/C=C\CCCC(=O)O)[C@@H](O)C[C@H]1O [Compared compound 2, 16,16-dimethyl-PGF2α, reference compound] | – | 4 | 4 | 0 | 4.5 | 4.5 | -2.0 | -0.8 | showed initial elevation | – | – |
| CCCCC(C)(C)[C@H](O)/C=C/[C@@H]1[C@@H](C/C=C\CCCC(=O)OCC)[C@H](O)C[C@H]1O [Example 5, 16,16-dimethyl-PGF2β ethyl ester] | 9.8 | – | 1 | 0 | -2.0 | -3.5 | -7.3 | -7.3 | did not show initial elevation | 6 | – |
| CCCCC(C)(C)[C@H](O)/C=C/[C@@H]1[C@@H](C/C=C\CCCC(=O)OC(C)C)[C@H](O)C[C@H]1O [Example 4, 16,16-dimethyl-PGF2β isopropyl ester] | 6.7 | – | 1 | 0 | -5.0 | -5.0 | -12.3 | -9.6 | did not show initial elevation | 6 | – |
| CCCCC(C)(C)[C@H](O)CC[C@@H]1[C@@H](C/C=C\CCCC(=O)OC(C)C)[C@@H](O)C[C@H]1O [Example 2, 16,16-dimethyl-13,14-dihydro-PGF2α isopropyl ester] | 4.0 | – | – | – | – | – | – | – | – | – | – |
| CCCCC(C)(C)[C@H](O)/C=C/[C@@H]1[C@@H](C/C=C\CCCC(=O)OC(C)C)[C@@H](O)C[C@H]1O [Example 3, 16,16-dimethyl-PGF2α isopropyl ester] | 4.7 | – | – | – | – | – | – | – | – | – | – |
| CCCCC[C@H](O)CC[C@@H]1[C@@H](C/C=C\CCCC(=O)OC2CCCCC2)[C@H](O)C[C@H]1O [Example 1, 13,14-dihydro-PGF2β cyclohexyl ester] | 6.0 | – | 1 | 0 | -2.0 | -2.3 | -6.6 | -1.8 | did not show initial elevation | 6 | 6.6 |
| CCCCC[C@H](O)CC[C@@H]1[C@@H](C/C=C\CCCC(=O)Oc2ccccc2)[C@H](O)C[C@H]1O [Example 1(a), 13,14-dihydro-PGF2β phenyl ester] | 5.7 | – | – | – | – | – | – | – | – | – | – |
| CCCCC[C@H](O)CC[C@@H]1[C@@H](C/C=C\CCCC(=O)OC2CCCCC2)[C@@H](O)C[C@H]1O [Compared compound 1, 13,14-dihydro-PGF2α cyclohexyl ester, reference compound] | – | – | 4 | 0 | 11.3 | 2.3 | -5.6 | -9.3 | showed extremely strong initial elevation | – | – |
